The values that follow come from patent US8999981B2, “3-amido-pyrrolo[3,4-C]pyrazole-5(1H, 4H,6H) carbaldehyde derivatives” (Pfizer Inc., priority 2007, dated 2015).

In the assay the target is Protein Kinase C beta 2 (PKCβII) (Homo sapiens (Human), UniProt P05771). Briefly: PKCβII coupled PK/LDH spectrophotometric kinase assay. The class given is biochemical. The note with it: apparent Ki, ATP-competitive model (Morrison equation); 0.1 mM ATP, 30° C.; read-out: PKCb Ki. As for the experimental part: This transfer is coupled to the oxidation of β-NADH through the activities of Pyruvate Kinase (PK) and Lactate Dehydrogenase (LDH). β-NADH conversion to NAD+ is monitored by the decrease in absorbance at 340 nm (e=6.22 cm^−1 mM^−1) using a Molecular Devices SPECTRA max PLUS spectrophotometer.
Sequence of Protein Kinase C beta 2 (PKCβII) (P05771 other isoform, or with tags, fused parts or gaps): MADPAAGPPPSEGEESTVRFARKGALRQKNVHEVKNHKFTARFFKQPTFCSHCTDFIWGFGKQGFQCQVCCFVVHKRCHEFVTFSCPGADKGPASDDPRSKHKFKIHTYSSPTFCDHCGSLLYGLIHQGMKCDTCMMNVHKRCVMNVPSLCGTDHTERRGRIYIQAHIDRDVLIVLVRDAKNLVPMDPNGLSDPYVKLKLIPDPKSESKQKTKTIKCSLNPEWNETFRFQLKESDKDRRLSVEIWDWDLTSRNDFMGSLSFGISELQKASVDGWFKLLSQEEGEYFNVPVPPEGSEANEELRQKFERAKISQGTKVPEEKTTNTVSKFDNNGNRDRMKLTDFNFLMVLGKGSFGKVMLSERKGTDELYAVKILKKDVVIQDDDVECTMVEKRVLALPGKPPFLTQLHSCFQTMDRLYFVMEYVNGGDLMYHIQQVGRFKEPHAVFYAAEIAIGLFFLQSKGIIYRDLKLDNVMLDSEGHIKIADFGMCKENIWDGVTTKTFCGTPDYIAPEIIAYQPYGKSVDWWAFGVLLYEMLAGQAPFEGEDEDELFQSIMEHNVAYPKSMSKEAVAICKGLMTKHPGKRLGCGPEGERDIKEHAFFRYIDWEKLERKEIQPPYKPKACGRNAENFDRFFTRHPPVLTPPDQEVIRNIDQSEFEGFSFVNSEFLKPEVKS
A typical assay was carried out on a 96-well, clear microtiter plate in a Molecular Devices spectrophotometer for 20 minutes at 30° C. in 0.1 mL of assay buffer containing 50 mM HEPES, pH 7.4, 5 nM PKC, 23 units of pyruvate kinase, 33 units of lactate dehydrogenase, 0.15 mM peptide, 0.1 mM ATP, 1 mM DTT, 4 mM PEP, 8 mM MgCl2, 0.3 mM NADH, 60 mM CaCl2, 10 mg/mL PS, 50 ng/mL PMA, 7.5% DMSO and from about 10,000 nM to 0.169 nM compound inhibitor. Stock solutions of 3-sn-phosphatidyl-L-serine (PS) and phorbol-12-myristate-13-acetate (PMA) were sonicated for 30 seconds just prior to addition to assay buffer and assays were initiated by the addition of 100 μM ATP.
Enzyme turnover values (kcat) were calculated according to […], where [E] is the total enzyme concentration. Enzyme inhibition constants (apparent K values) were determined by fitting initial velocities at variable inhibitor concentrations to a model for ATP competitive inhibition based on the Morrison equation). Morrison, J. F., Biochim. Biophys Acta 185: 269-286 (1969).

In the case of `CC[C@H]1CN(C(=O)N2Cc3c(NC(=O)c4ccccn4)n[nH]c3C2(C)C)[C@@H](C)CN1C` [Example A125], the Ki was 93.9 nM. For the compound `CCN1C[C@H](C)N(C(=O)N2Cc3c(NC(=O)c4ccc(F)cn4)n[nH]c3C2(C)C)C[C@@H]1C` [Example A126], the Ki was determined as 22.2 nM. On to `CC1CN(C(=O)N2Cc3c(NC(=O)c4ccccn4)n[nH]c3C2(C)C)CCN1CC1CC1` (stereo not shown) [Example A127], for which the Ki was 134 nM. Take `CCN1CCN(C(=O)N2Cc3c(NC(=O)c4ccccn4)n[nH]c3C2(C)C)CC1C` (stereo not shown) [Example A128]: the Ki is 156 nM.

`C[C@H]1CN(C)C(C)(C)CN1C(=O)N1Cc2c(NC(=O)c3ccccn3)n[nH]c2C1(C)C` [Example A129]: the Ki came to 18.1 nM. For the compound `C[C@H]1CN2CCC[C@H]2CN1C(=O)N1Cc2c(NC(=O)c3ccc(C(F)(F)F)cn3)n[nH]c2C1(C)C` [Example A130], the Ki came to 31.5 nM.

For the compound `CC[C@@H]1CN(C(=O)N2Cc3c(NC(=O)c4ccccn4)n[nH]c3C2(C)C)[C@@H](C)CN1C` [Example A131], the Ki turned out to be 37.2 nM. For `CCC1(CC)c2[nH]nc(NC(=O)c3ccccn3)c2CN1C(=O)N1C[C@@H]2CCCN2C[C@@H]1C` [Example A132], the Ki turned out to be 61.9 nM. With `C[C@H]1CN(C)C2(CCC2)CN1C(=O)N1Cc2c(NC(=O)c3ccccn3)n[nH]c2C1(C)C` [Example A133], the Ki stood at 8.58 nM. Regarding `CC(C)[C@H]1CN(C)C(C)(C)CN1C(=O)N1Cc2c(NC(=O)c3ccccn3)n[nH]c2C1(C)C` [Example A134], the Ki is 90.1 nM. Consider `CC(C)[C@H]1CN(C)C(C)CN1C(=O)N1Cc2c(NC(=O)c3ccc(Cl)cn3)n[nH]c2C1(C)C` (stereo partly shown) [Example A135], for which the Ki is 51.2 nM. As for `C[C@H]1CN2CCC[C@@]2(C)CN1C(=O)N1Cc2c(NC(=O)c3ccc(F)cn3)n[nH]c2C1(C)C` [Example A138], the Ki worked out at 29.3 nM. For the compound `CC[C@H]1CN2CCC[C@@]2(C)CN1C(=O)N1Cc2c(NC(=O)c3ccc(F)cn3)n[nH]c2C1(C)C` [Example A139], the Ki amounted to 75.2 nM. `C[C@@H]1CN(C(=O)N2Cc3c(NC(=O)c4cc(C5CC5)on4)n[nH]c3C2(C)C)[C@@H](C)CN1C` [Example A140]: the Ki was 26.8 nM. To `C[C@@H]1CN(C(=O)N2Cc3c(NC(=O)c4ccccn4)n[nH]c3C2(C)C)[C@@H](C)CN1CCCC#N` [Example A141] belongs 23.6 nM. On to `C[C@@H]1CN(C(=O)N2Cc3c(NC(=O)c4ccccn4)n[nH]c3C2(C)C)[C@@H](C)CN1CC1CCOCC1` [Example A143], for which the Ki was 1.9 nM. Take `C[C@@H]1CN(C(=O)N2Cc3c(NC(=O)c4ccccn4)n[nH]c3C2(C)C)[C@@H](C)CN1CCCCC#N` [Example A144]: the Ki stood at 38.3 nM. The figure for `C[C@@H]1CN(C(=O)N2Cc3c(NC(=O)c4ccccn4)n[nH]c3C2(C)C)[C@@H](C)CN1CCC1CCOCC1` [Example A145, N-(5-((2R,5S)-2,5-dimethyl-1-(2(tetradehydro-2H-pyran-4-yl)methyl)piperazine-4-carbonyl)-6,6-dimethyl-1,4,5,6-tetrahydropyrrolo[3,4-c]pyrazol-3-yl)picolinamide] is 17.6 nM; for `C[C@@H]1CN(C(=O)N2Cc3c(NC(=O)c4ccccn4)n[nH]c3C2(C)C)[C@@H](C)CN1C1CCOCC1` [Example A146] it is 1.7 nM.

With `C[C@@H]1CN(C(=O)N2Cc3c(NC(=O)c4ccccn4)n[nH]c3C2(C)C)[C@@H](C)CN1CC1CCOC1` (stereo partly shown) [Example A147], the Ki was under 10 nM. Regarding `C[C@@H]1CN(C(=O)N2Cc3c(NC(=O)c4ccccn4)n[nH]c3C2(C)C)[C@@H](C)CN1Cc1cocn1` [Example A148], the Ki was determined as 48.3 nM. As for `C[C@@H]1CN(C(=O)N2Cc3c(NC(=O)c4ccc(F)cn4)n[nH]c3C2(C)C)[C@@H](C)CN1C1CCOCC1` [Example A149], the Ki is under 10 nM.

In the case of `C[C@H]1CN(C)[C@H](CCO)CN1C(=O)N1Cc2c(NC(=O)c3ccccn3)n[nH]c2C1(C)C` [Example A150], the Ki was found to be 42 nM. For `C[C@H]1CN(C)[C@@H](CCO)CN1C(=O)N1Cc2c(NC(=O)c3ccccn3)n[nH]c2C1(C)C` [Example A151], the Ki came out at 152 nM.

On to `C[C@@H]1CN(C(=O)N2Cc3c(NC(=O)c4ccccn4)n[nH]c3C23CC3)[C@@H](C)CN1CC1CCOCC1` [Example A152], for which the Ki came to 76.2 nM. On to `C[C@@H]1CN(C(=O)N2Cc3c(NC(=O)c4ccccn4)n[nH]c3C2(C)C)[C@@H](C)CN1CC1(C)COC1` [Example A153], for which the Ki worked out at 37 nM. On to `C[C@H](CCO)N1C[C@H](C)N(C(=O)N2Cc3c(NC(=O)c4ccccn4)n[nH]c3C2(C)C)C[C@H]1C` [Example A154], for which the Ki worked out at 25.1 nM. For the compound `C[C@@H]1CN(C(=O)N2Cc3c(NC(=O)c4ccccn4)n[nH]c3C2(C)C)[C@@H](C)CN1[C@@H](C)CCO` [Example A155], the Ki is 43.3 nM.

For `C[C@@H]1CN(C(=O)N2Cc3c(NC(=O)c4ccccn4)n[nH]c3C2(C)C)[C@@H](C)CN1CCOCCO` [Example A156], the Ki came out at 108 nM.

For the compound `Cc1nc(C)c(C(=O)Nc2n[nH]c3c2CN(C(=O)N2C[C@@H](C)N(CCCO)C[C@@H]2C)C3(C)C)o1` [Example A160], the Ki was determined as 24.9 nM.

With `C[C@@H]1CN(C(=O)N2Cc3c(NC(=O)c4ccc(F)cn4)n[nH]c3C2(C)C)[C@@H](C)CN1CCO` [Example A161], the Ki turned out to be 38.8 nM. For `C[C@@H]1CN(C(=O)N2Cc3c(NC(=O)c4ccc(F)cn4)n[nH]c3C2(C)C)[C@@H](C)CN1CCCO` [Example A162], the Ki was found to be 21.7 nM. Turning to `COCCCN1C[C@H](C)N(C(=O)N2Cc3c(NC(=O)c4ccc(F)cn4)n[nH]c3C2(C)C)C[C@H]1C` [Example A163], the Ki was 24.5 nM. Take `COCCN1C[C@H](C)N(C(=O)N2Cc3c(NC(=O)c4ccc(F)cn4)n[nH]c3C2(C)C)C[C@H]1C` [Example A164]: the Ki stood at 56.9 nM. On to `CC1(C)c2n[nH]c(NC(=O)c3ccccn3)c2CN1C(=O)C1(F)CCN(C2CCC2)CC1` [Example B1, Pyridine-2-carboxylic acid [5-(1-cyclobutyl-4-fluoro-piperidine-4-carbonyl)-6,6-dimethyl-1,4,5,6-tetrahydro-pyrrolo[3,4-c]pyrazol-3-yl]-amide], for which the Ki was determined as 75.3 nM.

Regarding `CC1(C)c2[nH]nc(NC(=O)c3ccccn3)c2CN1C(=O)C1(F)CCN(C2CCOCC2)CC1` [Example B2, Pyridine-2-carboxylic acid {5-[4-fluoro-1-(tetrahydro-pyran-4-yl)-piperidine-4-carbonyl]-6,6-dimethyl-1,4,5,6-tetrahydro-pyrrolo[3,4-c]pyrazol-3-yl}-amide], the Ki is 89.8 nM. The figure for `Cc1nc(C)c(C(=O)Nc2n[nH]c3c2CN(C(=O)N2C[C@@H](C)N(C)C[C@@H]2C)C3(C)C)o1` [Example C2] is 50.3 nM; for `Cc1nc(C(=O)Nc2n[nH]c3c2CN(C(=O)N2C[C@@H](C)N(C)C[C@@H]2C)C3(C)C)cs1` [Example C3] it is 35.1 nM; for `Cc1ocnc1C(=O)Nc1n[nH]c2c1CN(C(=O)N1C[C@@H](C)N(C)C[C@@H]1C)C2(C)C` [Example C4] it is 45.1 nM.

As for `Cc1ncoc1C(=O)Nc1n[nH]c2c1CN(C(=O)N1C[C@@H](C)N(C)C[C@@H]1C)C2(C)C` [Example C5], the Ki turned out to be 46.5 nM. On to `CCc1nc(C)c(C(=O)Nc2n[nH]c3c2CN(C(=O)N2C[C@@H](C)N(C)C[C@@H]2C)C3(C)C)o1` [Example C6], for which the Ki amounted to 25.7 nM. With `CCc1ocnc1C(=O)Nc1n[nH]c2c1CN(C(=O)N1C[C@@H](C)N(C)C[C@@H]1C)C2(C)C` [Example C7], the Ki amounted to 66.4 nM. Take `C[C@@H]1CN(C(=O)N2Cc3c(NC(=O)c4coc(C5CC5)n4)n[nH]c3C2(C)C)[C@@H](C)CN1C` [Example C8]: the Ki worked out at 25 nM.

Take `CCc1cc(C(=O)Nc2n[nH]c3c2CN(C(=O)N2C[C@@H]4CCCN4C[C@@H]2C)C3(C)C)no1` [Example E1]: the Ki stood at 61.6 nM. With `Cc1cnc(C(=O)Nc2n[nH]c3c2CN(C(=O)N2C[C@@H]4CCCN4C[C@@H]2C)C3(C)C)cn1` [Example E2], the Ki worked out at 72.9 nM.

`C[C@H]1CN2CCC[C@H]2CN1C(=O)N1Cc2c(NC(=O)c3cc4ccccc4cn3)n[nH]c2C1(C)C` [Example E3]: the Ki was determined as 5.51 nM.

Consider `C[C@H]1CN2CCC[C@H]2CN1C(=O)N1Cc2c(NC(=O)c3ccc4cnccc4n3)n[nH]c2C1(C)C` [Example E4], for which the Ki is 6.17 nM. For `COc1cccc(C(=O)Nc2n[nH]c3c2CN(C(=O)N2C[C@@H]4CCCN4C[C@@H]2C)C3(C)C)c1` [Example E5], the Ki was determined as 37.5 nM. With `C[C@H]1CN2CCC[C@H]2CN1C(=O)N1Cc2c(NC(=O)c3cc(C4CC4)n[nH]3)n[nH]c2C1(C)C` [Example E6], the Ki was 6.81 nM.

On to `C[C@H]1CN2CCC[C@H]2CN1C(=O)N1Cc2c(NC(=O)c3cnc4ccccc4n3)n[nH]c2C1(C)C` [Example E7], for which the Ki stood at 12.5 nM. As to `C[C@H]1CN2CCC[C@H]2CN1C(=O)N1Cc2c(NC(=O)c3ccnn3C)n[nH]c2C1(C)C` [Example E8], the Ki is 118 nM. Consider `Cc1nc(C(=O)Nc2n[nH]c3c2CN(C(=O)N2C[C@@H]4CCCN4C[C@@H]2C)C3(C)C)cs1` [Example E9], for which the Ki worked out at 31.3 nM.
